Assay results: patent US5324648A, “Substituted isocoumarins as serine protease inhibitors and anti-inflammatory agents” (Georgia Tech Research Corporation, priority 1992, dated 1994)

Legend:
complement protein D = complement protein D (Homo sapiens, UniProt P00746); assay: Inactivation rate of complement protein D; format: biochemical; conditions: Table II; pH 7.5, 25° C; [I] 0.05 to 1.29 mM; read-out: kobs/[I]
Procedure: (§1) Inactivation rates of serine proteases by substituted isocoumarins were measured by the incubation method. An aliquot of inhibitor (25 or 50 μl) in Me2 SO was added to a buffered enzyme solution (0.01-2.3 μM) to initiate the inactivation. Aliquots (50 μl) were withdrawn at various intervals and the residual enzymatic activity was measured. Me2 SO concentration in the reaction mixture was 8-12% (v/v). 0.1 Hepes, 0.01M CaCl2, pH 7.5 buffer was utilized for trypsin and coagulation enzymes. 0.1M Hepes, 0.5M NaCl, pH 7.5 was utilized for other serine proteases. The inhibitor concentrations are shown in all the tables. Peptide thioesters or peptide nitroanilides with appropriate sequence were used as substrates for various serine proteases. All peptide thioester hydrolysis rates were measured with assay mixtures containing 4,4'-dithiodipyridine (ε324 =19800M^-1 cm^-1; Grasetti & Murray, Arch. Biochem. Biophys. 119, pp 41-49 (1967)). Peptide 4-nitroanilide nitroanilide hydrolysis was measured at 410 nm (ε410 =8800M^-1 cm^-1; Erlanger et al., Arch. Biochem. Biophys. 95, pp 271-278 (1961)). First order inactivation rate constant (kobs) were obtained from plots of ln (vt /vo) vs time, and the correlation coefficients were greater than 0.98.
^a Conditions were 0.1M Hepes, 0.5M NaCl, pH 7.5, 8-10% Me2 SO
and 25° C. Inactivation rates were measured by incubation method.
Enzyme concentrations were as follows: protein D, 1-9 μM; C2, 0.7-1
μM; B, 1.8 μM; Bb, 0.3-0.8 μM; Cl^- s, 0.07 μM; Cl^-

bovine thrombin = target: T1, bovine thrombin (Bos taurus, UniProt P00735); assay: Inactivation rate of bovine thrombin; format: biochemical; conditions: Table I; pH 7.5, 25° C; [I] 0.3 to 400 μM; read-out: kobs/[I]
T1 construct: bovine thrombin
Procedure: as §1
(§2) ^a Conditions were as 0.1M Hepes, 0.01M CaCl2, pH 7.5 and 8-12%
(§3) Me2 SO and 25° C. Rate constants were measured by incubation
(§4) method unless otherwise noted. An aliquot of inhibitor was added to an
(§5) enzyme solution and aliquots removed with time and assayed for remaining
(§6) enzymatic activity. Firstorder rate constants, kobs were obtained
(§7) from the plots of ln(vt /vo) versus time.
(§8) ^a Inhibition rates were measured in 0.1M Hepes, 0.01M CaCl2, pH
(§9) 7.5 buffer, 8% Me2 SO and at 25° C.

bovine factor Xa = target: T2, bovine factor Xa (Bos taurus, UniProt P00743); assay: Inactivation rate of bovine factor Xa; format: biochemical; conditions: Table I; pH 7.5, 25° C; [I] 0.4 to 310 μM; read-out: kobs/[I]
T2 construct: bovine factor Xa

[1] = target: T3, porcine pancreatic kallikrein (Sus scrofa, UniProt P00752); assay: Inactivation rate of porcine pancreatic kallikrein; format: biochemical; conditions: Table I; pH 7.5, 25° C; [I] 0.4 to 300 μM; read-out: kobs/[I]
T3 construct: from tissue; host or cells: porcine pancreas (from the name)

human plasma kallikrein = target: T4, human plasma kallikrein (Homo sapiens, UniProt P03952); assay: Inactivation rate of human plasma kallikrein; format: biochemical; conditions: Table I; pH 7.5, 25° C; [I] 3 to 330 μM (footnote g); read-out: kobs/[I]
T4 construct: human plasma kallikrein; from tissue; host or cells: human plasma (from the name)
Procedure: as §1, §2, §3, §4, §5, §6, §7

human factor XIa = target: T5, human factor XIa (Homo sapiens, UniProt P03951); assay: Inactivation rate of human factor XIa; format: biochemical; conditions: Table I; pH 7.5, 25° C; [I] 3 to 330 μM; read-out: kobs/[I]
T5 construct: human factor XIa
Procedure: as §1, §2, §3, §4, §5, §6, §7, §8, §9

human factor XIIa = target: T6, human factor XIIa (Homo sapiens, UniProt P00748); assay: Inactivation rate of human factor XIIa; format: biochemical; conditions: Table I; pH 7.5, 25° C; [I] 3 to 330 μM; read-out: kobs/[I]
T6 construct: human factor XIIa
T6 sequence (P00748 373-615 limits assumed): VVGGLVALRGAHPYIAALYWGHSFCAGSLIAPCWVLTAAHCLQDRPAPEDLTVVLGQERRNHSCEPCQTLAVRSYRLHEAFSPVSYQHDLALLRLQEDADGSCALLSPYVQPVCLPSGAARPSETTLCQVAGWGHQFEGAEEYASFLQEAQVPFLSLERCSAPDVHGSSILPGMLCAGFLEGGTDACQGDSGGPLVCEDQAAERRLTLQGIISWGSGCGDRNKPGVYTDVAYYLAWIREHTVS
T6 sequence (P00748 20-372 partner limits assumed): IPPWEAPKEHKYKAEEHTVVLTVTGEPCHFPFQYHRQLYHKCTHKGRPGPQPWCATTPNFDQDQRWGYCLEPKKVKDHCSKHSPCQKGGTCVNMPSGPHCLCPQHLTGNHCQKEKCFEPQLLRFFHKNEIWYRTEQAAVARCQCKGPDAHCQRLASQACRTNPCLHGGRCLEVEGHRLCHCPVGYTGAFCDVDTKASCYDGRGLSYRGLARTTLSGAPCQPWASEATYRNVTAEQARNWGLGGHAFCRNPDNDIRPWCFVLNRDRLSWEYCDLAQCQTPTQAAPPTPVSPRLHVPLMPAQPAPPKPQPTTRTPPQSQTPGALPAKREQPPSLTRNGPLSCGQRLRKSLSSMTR
Procedure: as §1, §2, §3, §4, §5, §6, §7, §8, §9

bovine trypsin = target: T7, bovine trypsin (Bos taurus, UniProt P00760); assay: Inactivation rate of bovine trypsin; format: biochemical; conditions: Table I; pH 7.5, 25° C; [I] 1 to 12 μM; read-out: kobs/[I]
T7 sequence (P00760 24-246): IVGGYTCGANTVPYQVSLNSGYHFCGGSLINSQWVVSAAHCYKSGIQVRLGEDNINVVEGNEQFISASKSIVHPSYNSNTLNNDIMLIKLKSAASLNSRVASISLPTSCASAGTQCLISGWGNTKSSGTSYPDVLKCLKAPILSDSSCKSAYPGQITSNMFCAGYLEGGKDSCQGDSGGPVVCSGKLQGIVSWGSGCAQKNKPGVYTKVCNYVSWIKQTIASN
Procedure: as §1, §2, §3, §4, §5, §6, §7, §8, §9

[2] = target: sheep lung lymph tryptase; assay: Inactivation rate of sheep lung lymph tryptase; format: biochemical; conditions: Table III; pH 7.5, 25° C; [I] 10 to 460 μM
Procedure: Inactivation rates of serine proteases by substituted isocoumarins were measured by the incubation method. An aliquot of inhibitor (25 or 50 μl) in Me2 SO was added to a buffered enzyme solution (0.01-2.3 μM) to initiate the inactivation. Aliquots (50 μl) were withdrawn at various intervals and the residual enzymatic activity was measured. […] 0.1 Hepes, 0.01M CaCl2, pH 7.5 buffer was utilized for trypsin and coagulation enzymes. […] The inhibitor concentrations are shown in all the tables. Peptide thioesters or peptide nitroanilides with appropriate sequence were used as substrates for various serine proteases.
^a Inactivation rates were measured at 0.1M Hepes, 0.5M NaCl, pH 7.5
buffer, 8% Me2 SO and 25° C.

[3] = target: T8, human leukocyte elastase (HLE) (Homo sapiens, UniProt P08246); assay: Inactivation of human leukocyte elastase (HLE); format: biochemical; conditions: Table IV; pH 7.5, 25° C; [I] 0.001 to 0.18 mM; read-out: kobs/[I]
T8 construct: from tissue; host or cells: human leukocytes (from the name)
T8 sequence (P08246 30-267): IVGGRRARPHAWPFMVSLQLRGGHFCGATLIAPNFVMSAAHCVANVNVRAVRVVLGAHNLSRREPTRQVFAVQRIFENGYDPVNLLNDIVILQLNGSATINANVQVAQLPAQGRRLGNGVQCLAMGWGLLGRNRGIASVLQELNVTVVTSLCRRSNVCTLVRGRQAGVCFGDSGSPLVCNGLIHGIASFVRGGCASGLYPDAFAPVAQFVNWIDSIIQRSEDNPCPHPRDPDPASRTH
Procedure: Inactivation rates of serine proteases by substituted isocoumarins were measured by the incubation method. An aliquot of inhibitor (25 or 50 μl) in Me2 SO was added to a buffered enzyme solution (0.01-2.3 μM) to initiate the inactivation. Aliquots (50 μl) were withdrawn at various intervals and the residual enzymatic activity was measured. Me2 SO concentration in the reaction mixture was 8-12% (v/v). 0.1 Hepes, 0.01M CaCl2, pH 7.5 buffer was utilized for trypsin and coagulation enzymes. 0.1M Hepes, 0.5M NaCl, pH 7.5 was utilized for other serine proteases. […] Peptide thioesters or peptide nitroanilides with appropriate sequence were used as substrates for various serine proteases. All peptide thioester hydrolysis rates were measured with assay mixtures containing 4,4'-dithiodipyridine (ε324 =19800M^-1 cm^-1 ; Grasetti & Murray, Arch. Biochem. Biophys. 119, pp 41-49 (1967)). Peptide 4-nitroanilide nitroanilide hydrolysis was measured at 410 nm (ε410 =8800M^-1 cm^-1 ; Erlanger et al., Arch. Biochem. Biophys. 95, pp 271-278 (1961)). First order inactivation rate constant (kobs) were obtained from plots of ln (vt /vo) vs time, and the correlation coefficients were greater than 0.98.
^a Inactivation rates were measured at 0.1M Hepes, 0.5 NaCl, pH 7.5,
8-12% Me2 SO and 25° C. by incubation method.
^a Inhibition rates were measured in 0.1M Hepes, 0.05M NaCl, pH 7.5
buffer, 8-9% Me2 SO and at 25° C.
^a Inhibition constants were in 0.1M Hepes, 0.5M NaCl, pH 7.5 buffer,
8-9% Me2 SO and at 25° C.
^a Inhibition rates were measured in 0.1M Hepes, 0.5M NaCl, 2.5%
Me2 SO, pH 7,5 and at 25° C.
^a Inhibition was measured in 0.1M Hepes, 0.5M NaCl, pH 7.5 buffer,
5-10% Me2 SO and at 25° C. Suc--Val--Pro--Phe--NA (0.48 mM)
was used as the substrate for chymotrypsin and cat G.
^a Inhibition rates were measured in 0.1M Hepes, 0.5M NaCl, pH 7.5

chymotrypsin = chymotrypsin (Bos taurus, UniProt P00766); assay: Inactivation of chymotrypsin; format: biochemical, bovine; conditions: Table IV; pH 7.5, 25° C; [I] 0.004 to 0.33 mM; read-out: kobs/[I]
cathepsin G = target: T9, cathepsin G (Homo sapiens, UniProt P08311); assay: Inactivation of cathepsin G; format: biochemical; conditions: Table IV; not time dependent; at 0.53 mM
T9 construct: from tissue; host or cells: human leukocytes
T9 sequence (P08311 21-255): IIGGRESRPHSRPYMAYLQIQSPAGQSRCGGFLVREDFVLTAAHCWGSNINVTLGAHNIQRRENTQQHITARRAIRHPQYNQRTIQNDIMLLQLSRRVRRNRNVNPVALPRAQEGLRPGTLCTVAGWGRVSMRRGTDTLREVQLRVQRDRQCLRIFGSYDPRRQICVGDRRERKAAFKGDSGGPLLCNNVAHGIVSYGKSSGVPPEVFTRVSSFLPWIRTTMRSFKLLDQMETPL

[4] = Spontaneous hydrolysis in Hepes buffer; format: physicochemical; conditions: hepes buffer; 0.1 Hepes, 0.5M NaCl, pH 7.5, 9% Me2SO, 25° C; read-out: t1/2 for spontaneous hydrolysis
Procedure: ^a Conditions were 0.1 Hepes, 0.5M NaCl, pH 7.5 and 9% Me2 SO at
25° C. Spontaneous hydrolysis rates were measured
spectrophotometrically by monitoring the decrease in absorbance due to th
isocoumarin ring system (wavelength 335-380 nm) using the firstorder rate

Sequence of complement protein D (P00746 26-253): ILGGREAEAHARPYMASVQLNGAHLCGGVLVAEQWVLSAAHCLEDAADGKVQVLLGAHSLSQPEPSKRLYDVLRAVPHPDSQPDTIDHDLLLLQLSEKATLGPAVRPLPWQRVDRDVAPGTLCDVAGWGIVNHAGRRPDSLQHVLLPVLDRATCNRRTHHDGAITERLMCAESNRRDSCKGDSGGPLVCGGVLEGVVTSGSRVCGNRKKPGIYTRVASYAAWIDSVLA
T4 sequence (P03952 391-638 limits assumed): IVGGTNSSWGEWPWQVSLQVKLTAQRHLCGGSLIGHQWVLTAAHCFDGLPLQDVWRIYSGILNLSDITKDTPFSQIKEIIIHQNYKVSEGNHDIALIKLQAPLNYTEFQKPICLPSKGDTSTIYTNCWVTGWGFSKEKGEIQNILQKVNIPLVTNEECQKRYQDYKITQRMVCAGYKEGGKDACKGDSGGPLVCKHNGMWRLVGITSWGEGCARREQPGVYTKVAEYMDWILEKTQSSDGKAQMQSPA
T4 sequence (P03952 20-390 partner limits assumed): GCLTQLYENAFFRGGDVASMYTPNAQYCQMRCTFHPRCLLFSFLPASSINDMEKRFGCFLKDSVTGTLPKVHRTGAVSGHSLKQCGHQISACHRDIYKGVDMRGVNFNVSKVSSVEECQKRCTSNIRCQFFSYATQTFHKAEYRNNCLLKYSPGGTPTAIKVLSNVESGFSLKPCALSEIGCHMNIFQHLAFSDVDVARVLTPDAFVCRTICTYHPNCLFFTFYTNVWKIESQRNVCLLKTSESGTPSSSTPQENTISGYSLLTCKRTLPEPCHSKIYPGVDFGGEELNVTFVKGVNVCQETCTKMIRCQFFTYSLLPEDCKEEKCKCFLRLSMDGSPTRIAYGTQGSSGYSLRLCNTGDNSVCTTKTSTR
T3 sequence (P00752 8-246): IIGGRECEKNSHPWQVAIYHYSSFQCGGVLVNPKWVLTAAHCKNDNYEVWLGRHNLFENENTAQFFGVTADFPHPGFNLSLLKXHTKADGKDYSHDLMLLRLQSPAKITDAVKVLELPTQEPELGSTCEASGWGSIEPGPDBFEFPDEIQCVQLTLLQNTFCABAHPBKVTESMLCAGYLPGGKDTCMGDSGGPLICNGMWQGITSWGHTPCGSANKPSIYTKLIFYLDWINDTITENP
T2 sequence (P00743 234-492 limits assumed): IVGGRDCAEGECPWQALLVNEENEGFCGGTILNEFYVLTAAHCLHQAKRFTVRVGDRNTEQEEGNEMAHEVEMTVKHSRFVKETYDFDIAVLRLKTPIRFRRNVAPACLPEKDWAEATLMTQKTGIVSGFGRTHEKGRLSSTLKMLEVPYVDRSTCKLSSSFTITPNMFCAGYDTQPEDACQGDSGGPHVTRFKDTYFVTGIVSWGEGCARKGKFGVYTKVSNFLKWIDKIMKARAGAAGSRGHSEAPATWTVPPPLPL
T2 sequence (P00743 41-180 partner limits assumed): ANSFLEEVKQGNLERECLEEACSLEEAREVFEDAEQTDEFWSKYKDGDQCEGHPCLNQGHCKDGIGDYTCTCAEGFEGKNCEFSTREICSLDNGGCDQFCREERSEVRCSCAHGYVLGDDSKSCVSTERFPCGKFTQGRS
T5 sequence (P03951 388-625 limits assumed): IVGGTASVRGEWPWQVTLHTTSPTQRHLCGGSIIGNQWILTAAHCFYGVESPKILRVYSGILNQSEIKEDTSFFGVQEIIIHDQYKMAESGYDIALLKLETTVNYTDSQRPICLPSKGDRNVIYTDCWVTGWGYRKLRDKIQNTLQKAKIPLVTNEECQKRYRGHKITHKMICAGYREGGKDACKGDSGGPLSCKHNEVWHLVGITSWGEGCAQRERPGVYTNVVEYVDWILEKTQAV
T5 sequence (P03951 19-387 partner limits assumed): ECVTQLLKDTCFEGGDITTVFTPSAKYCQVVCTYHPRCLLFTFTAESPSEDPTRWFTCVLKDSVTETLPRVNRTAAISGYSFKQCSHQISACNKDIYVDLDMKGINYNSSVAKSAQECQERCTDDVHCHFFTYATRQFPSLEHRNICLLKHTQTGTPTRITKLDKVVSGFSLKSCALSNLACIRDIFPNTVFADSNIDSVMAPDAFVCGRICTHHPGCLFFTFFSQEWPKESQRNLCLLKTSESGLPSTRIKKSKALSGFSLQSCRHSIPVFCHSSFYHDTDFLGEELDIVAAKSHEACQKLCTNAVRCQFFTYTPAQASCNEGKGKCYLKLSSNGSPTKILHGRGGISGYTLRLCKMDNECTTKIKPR

Structure (SMILES) | kinact/KI (complement protein D) [M⁻¹ s⁻¹] | kinact/KI (bovine thrombin) [M⁻¹ s⁻¹] | kinact/KI (bovine factor Xa) [M⁻¹ s⁻¹] | kinact/KI [1] [M⁻¹ s⁻¹] | kinact/KI (human plasma kallikrein) [M⁻¹ s⁻¹] | kinact/KI (human factor XIa) [M⁻¹ s⁻¹] | kinact/KI (human factor XIIa) [M⁻¹ s⁻¹] | kinact/KI (bovine trypsin) [M⁻¹ s⁻¹] | kobs/[I] [2] [M⁻¹ s⁻¹] | kinact/KI [3] [M⁻¹ s⁻¹] | kinact/KI (chymotrypsin) [M⁻¹ s⁻¹] | inhibition at 530 µM (cathepsin G) [%] | half-life [4] [h]
CCOc1oc(=O)c2ccccc2c1Cl [3-ethoxy-4-chloroisocoumarin, reference compound] | 0.25 |  |  |  |  |  |  |  |  |  |  |  | 
COc1oc(=O)c2cc(N)ccc2c1Cl [7-amino-3-methoxy-4-chloroisocoumarin, reference compound] | 1.3 |  |  |  |  |  |  |  |  |  |  |  | 
N=C(N)Nc1ccc2cc(OCCc3ccccc3)oc(=O)c2c1 [7-guanidino-3-(2-phenylethoxy)isocoumarin] |  | 5700 | 11000 | 16000 | 62000 | 1200 | 690 | 45000 | 150 | 0.9 | 2600 | 87 | 2.33
